For test [1], the target named is T1, Human PDGFRα, cytoplasmic domain (GST-PDGFRα) (Homo sapiens, UniProt P16234).
T1 construct: made in house
Nature of the test: Human PDGFRα biochemical inhibition assay (off-chip Mobility Shift Assay).

Test [2] concerns the target T2, Human PDGFRβ, cytoplasmic domain (GST-PDGFRβ) (Homo sapiens, UniProt P09619).
T2 construct: made in house
In words: Human PDGFRβ biochemical inhibition assay (off-chip Mobility Shift Assay). In a few lines: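 GST-tagged cytoplasmic domain (aa 557-1106) from baculovirus was incubated 1 h at room temperature with compound, CSKtide, ATP at Km and Mg²⁺ in HEPES buffer, pH 7.5. Phosphorylated and unphosphorylated peptide were separated by off-chip mobility shift, and the product ratio P/(P+S) gave percent inhibition.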

T1 sequence (P16234 550-1089 T674I): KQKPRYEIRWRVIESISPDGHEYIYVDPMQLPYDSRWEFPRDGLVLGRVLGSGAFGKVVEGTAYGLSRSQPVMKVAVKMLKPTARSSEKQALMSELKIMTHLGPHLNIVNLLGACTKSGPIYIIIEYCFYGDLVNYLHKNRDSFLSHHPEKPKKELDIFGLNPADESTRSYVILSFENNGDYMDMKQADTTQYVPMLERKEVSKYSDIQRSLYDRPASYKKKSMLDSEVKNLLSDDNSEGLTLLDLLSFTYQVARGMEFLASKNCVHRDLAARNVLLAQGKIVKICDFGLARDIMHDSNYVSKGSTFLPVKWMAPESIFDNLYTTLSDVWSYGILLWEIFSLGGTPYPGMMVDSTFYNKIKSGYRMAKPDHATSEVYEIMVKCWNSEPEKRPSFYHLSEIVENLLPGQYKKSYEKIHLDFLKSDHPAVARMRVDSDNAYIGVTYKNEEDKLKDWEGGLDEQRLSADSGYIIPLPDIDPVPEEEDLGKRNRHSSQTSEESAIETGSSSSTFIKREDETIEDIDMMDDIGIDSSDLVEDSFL
T2 sequence (P09619 with tags, fused parts or gaps): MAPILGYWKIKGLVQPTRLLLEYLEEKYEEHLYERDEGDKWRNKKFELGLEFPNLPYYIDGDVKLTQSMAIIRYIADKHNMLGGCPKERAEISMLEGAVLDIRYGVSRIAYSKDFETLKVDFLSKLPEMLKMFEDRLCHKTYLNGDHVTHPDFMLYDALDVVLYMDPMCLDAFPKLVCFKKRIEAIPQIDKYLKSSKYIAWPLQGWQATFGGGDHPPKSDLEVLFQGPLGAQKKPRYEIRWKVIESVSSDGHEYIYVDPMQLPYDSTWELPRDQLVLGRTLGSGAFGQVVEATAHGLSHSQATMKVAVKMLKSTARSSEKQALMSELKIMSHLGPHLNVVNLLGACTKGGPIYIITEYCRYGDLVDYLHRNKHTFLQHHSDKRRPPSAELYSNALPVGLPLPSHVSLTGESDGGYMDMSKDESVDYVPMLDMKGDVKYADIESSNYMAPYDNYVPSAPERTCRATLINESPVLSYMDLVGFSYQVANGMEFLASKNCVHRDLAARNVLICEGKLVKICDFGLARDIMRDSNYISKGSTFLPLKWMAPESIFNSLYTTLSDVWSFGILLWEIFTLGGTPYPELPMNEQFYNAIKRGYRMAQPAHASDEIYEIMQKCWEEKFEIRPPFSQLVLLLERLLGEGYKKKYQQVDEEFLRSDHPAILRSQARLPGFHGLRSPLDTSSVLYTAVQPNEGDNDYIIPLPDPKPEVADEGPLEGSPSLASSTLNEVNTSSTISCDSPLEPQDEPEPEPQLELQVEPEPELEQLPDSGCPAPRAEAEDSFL

Regarding `CCn1cc2ncc(N[C@@H](C)c3cccc(NC(=O)c4cnc(NC)c(C)c4)c3)nc2n1` [Compound 380, (S)-N-(3-(1-((2-ethyl-2H-pyrazolo[3,4-b]pyrazin-6-yl)amino)ethyl)phenyl)-5-methyl-6-(methylamino)nicotinamide], the IC50 (in general, the concentration at which inhibition is half-maximal) is under 300 nM in test [1] and 300 to 1000 nM in test [2].
Consider `CCn1cc2ncc(N[C@@H](C)c3cccc(NC(=O)c4cnc(C(C)O)s4)c3)nc2n1` (stereo partly drawn) [Compound 381, N-(3-((S)-1-((2-ethyl-2H-pyrazolo[3,4-b]pyrazin-6-yl)amino)ethyl)phenyl)-2-(1-hydroxyethyl)thiazole-5-carboxamide], for which the IC50 in test [1] was under 300 nM; in test [2], 300 to 1000 nM.
As to `CCn1cc2ncc(N[C@@H](C)c3cccc(NC(=O)c4cnc(Cl)c(C)c4)c3)nc2n1` [Compound 383, (S)-6-chloro-N-(3-(1-((2-ethyl-2H-pyrazolo[3,4-b]pyrazin-6-yl)amino)ethyl)phenyl)-5-methylnicotinamide], the IC50 in test [1] and in test [2] was under 300 nM each time.
With `CCn1cc2ncc(N[C@@H](C)c3cccc(NC(=O)c4ccc(N(C)C)c(C)c4)c3)nc2n1` [Compound 384, (S)-4-(dimethylamino)-N-(3-(1-((2-ethyl-2H-pyrazolo[3,4-b]pyrazin-6-yl)amino)ethyl)phenyl)-3-methylbenzamide], the IC50 in test [1] and in test [2] was under 300 nM throughout.
As to `CCn1cc2ncc(N[C@@H](C)c3cccc(NC(=O)c4ccc(NC5CC5)nc4)c3)nc2n1` [Compound 385, (S)-6-(cyclopropylamino)-N-(3-(1-((2-ethyl-2H-pyrazolo[3,4-b]pyrazin-6-yl)amino)ethyl)phenyl)nicotinamide], the figures for the IC50 in test [1] and in test [2] were under 300 nM and 300 to 1000 nM, respectively.
Turning to `CCn1cc2ncc(N[C@@H](C)c3cccc(NC(=O)c4ccc(N5CCOCC5)c(C)c4)c3)nc2n1` [Compound 386, (S)-N-(3-(1-((2-ethyl-2H-pvrazolo[3,4-b]pyrazin-6-yl)amino)ethyl)phenyl)-3-methyl-4-morpholinobenzamide], the IC50 in test [1] and in test [2] was under 300 nM in each case.
As for `CCn1cc2ncc(N[C@@H](C)c3cccc(NC(=O)c4ccc(CN5CCN(C)CC5)nc4)c3)nc2n1` [Compound 387, (S)-N-(3-(1-((2-ethyl-2H-pyrazolo[3,4-b]pyrazin-6-yl)amino)ethyl)phenyl)-6-((4-methylpiperazin-1-yl)methyl) nicotinamide], the values for the IC50 in test [1] and in test [2] were under 300 nM and at least 1000 nM, respectively.
Consider `CCn1cc2ncc(N[C@@H](C)c3cccc(NC(=O)c4ccc(CN5CCCC5)nc4)c3)nc2n1` [Compound 388, (S)-N-(3-(1-((2-ethyl-2H-pyrazolo[3,4-b]pyrazin-6-yl)amino)ethyl)phenyl)-6-(pyrrolidin-1-ylmethyl) nicotinamide], for which the IC50 in test [1] and in test [2] was at least 1000 nM throughout.
Turning to `CCn1cc2ncc(N[C@@H](C)c3cccc(NC(=O)c4ccc(N5CCCC5)c(Cl)c4)c3)nc2n1` [Compound 389, (S)-3-chloro-N-(3-(1-((2-ethyl-2H-pyrazolo[3,4-b]pyrazin-6-yl)amino)ethyl)phenyl)-4-(pyrrolidin-1-yl)benzamide], the IC50 in test [1] and in test [2] was under 300 nM throughout.
For `C[C@H](Nc1cnc2cn(CC3CCC3)nc2n1)c1cc(NC(=O)c2cnc(C(F)(F)F)s2)ccc1F` [Compound 390, (S)-N-(3-(1-((2-(cyclobutylmethyl)-2H-pyrazolo[3,4-b]pyrazin-6-yl)amino)ethyl)-4-fluorophenyl)-2-(trifluoromethyl)thiazole-5-carboxamide], the IC50 in test [1] and in test [2] was under 300 nM throughout.
For the molecule `C[C@H](Nc1cnc2cn(CC3CNC3)nc2n1)c1cc(NC(=O)c2cnc(C(F)(F)F)s2)ccc1F` [Compound 391, (S)-N-(3-(1-((2-(azetidin-3-ylmethyl)-2H-pyrazolo[3,4-b]pyrazin-6-yl)amino)ethyl)-4-fluorophenyl)-2-(trifluoromethyl)thiazole-5-carboxamide], the IC50 in test [1] and in test [2] was under 300 nM in each case.
As to `CCn1cc2ncc(N[C@@H](C)c3cccc(NC(=O)c4cnc(NCCOC)c(C)c4)c3)nc2n1` [Compound 392, (S)-N-(3-(1-((2-ethyl-2H-pyrazolo[3,4-b]pyrazin-6-yl)amino)ethyl)phenyl)-6-((2-methoxyethyl)amino)-5-methylnicotinamide], the IC50 was 300 to 1000 nM in test [1] and at least 1000 nM in test [2].
For `CCn1cc2ncc(N[C@@H](C)c3cccc(NC(=O)c4ccc(NC)nc4)c3)nc2n1` [Compound 393, (S)-N-(3-(1-((2-ethyl-2H-pyrazolo[3,4-b]pyrazin-6-yl)amino)ethyl)phenyl)-6-(methylamino)nicotinamide], in that order: 300 to 1000 nM and at least 1000 nM.
Turning to `CCNc1ccc(C(=O)Nc2cccc([C@H](C)Nc3cnc4cn(CC)nc4n3)c2)cn1` [Compound 394, (S)-N-(3-(1-((2-ethyl-2H-pyrazolo[3,4-b]pyrazin-6-yl)amino)ethyl)phenyl)-6-(ethylamino)nicotinamide], the half-maximal inhibitory concentration (IC50) is under 300 nM in test [1] and at least 1000 nM in test [2].
For `CCn1cc2ncc(N[C@@H](C)c3cccc(NC(=O)c4ccc(NC(C)C)nc4)c3)nc2n1` [Compound 395, (S)-N-(3-(1-((2-ethyl-2H-pyrazolo[3,4-b]pyrazin-6-yl)amino)ethyl)phenyl)-6-(isopropylamino)nicotinamide], in that order: under 300 nM and 300 to 1000 nM.
`CCn1cc2ncc(N[C@@H](C)c3cccc(NC(=O)c4cnc(N5CCN(C)CC5)c(C)c4)c3)nc2n1` [Compound 396, (S)-N-(3-(1-((2-ethyl-2H-pyrazolo[3,4-b]pyrazin-6-yl)amino)ethyl)phenyl)-5-methyl-6-(4-methylpiperazin-1-yl) nicotinamide]: the IC50 in test [1] and in test [2] was under 300 nM each time.
On to `CCn1cc2ncc(N[C@@H](C)c3cccc(NC(=O)c4ccc(N5CCNCC5)nc4)c3)nc2n1` [Compound 397, (S)-N-(3-(1-((2-ethyl-2H-pyrazolo[3,4-b]pyrazin-6-yl)amino)ethyl)phenyl)-6-(piperazin-1-yl)nicotinamide], for which the IC50 in test [1] is 300 to 1000 nM; in test [2] it was at least 1000 nM.
As to `CCn1cc2ncc(N[C@@H](C)c3cccc(NC(=O)c4cnc(C5CCCC5)s4)c3)nc2n1` [Compound 398, (S)-2-cyclopentyl-N-(3-(1-((2-ethyl-2H-pyrazolo[3,4-b]pyrazin-6-yl)amino)ethyl)phenyl)thiazole-5-carboxamide], the IC50 in test [1] and in test [2] was under 300 nM each time.
For the molecule `C[C@H](Nc1cnc2cn(C3CC3)nc2n1)c1cc(NC(=O)c2cnc(C(F)(F)F)s2)ccc1F` [Compound 399, (S)-N-(3-(1-((2-cyclopropyl-2H-pyrazolo[3,4-b]pyrazin-6-yl)amino)ethyl)-4-fluorophenyl)-2-(trifluoromethyl)thiazole-5-carboxamide], the IC50 in test [1] and in test [2] was under 300 nM in each case.
`CCn1cc2ncc(N[C@@H](C)c3cccc(NC(=O)c4cnc(C5OCCO5)s4)c3)nc2n1` [Compound 400, (S)-2-(1,3-dioxolan-2-yl)-N-(3-(1-((2-ethyl-2H-pyrazolo[3,4-b]pyrazin-6-yl)amino)ethyl)phenyl)thiazole-5-carboxamide]: the IC50 in test [1] is 300 to 1000 nM; in test [2], at least 1000 nM.
